Data as given in patent US20180353445A1, “METHODS AND COMPOSITIONS RELATING TO PROTEASOME INHIBITOR RESISTANCE” (Whitehead Institute for Biomedical Research, priority 2017, published 2018).
“Also recorded” adds a separate entry of the source.

Legend:
[1] = test system: MCF7, HEK293 and T47D cells; assay: Viability of cells grown in glucose (glycolytic) vs galactose (Hi-OXPHOS); type: cell-based, human; settings: screen
Method: FIGS. 40A-40D: Cancer cell metabolism alters sensitivity to elesclomol.
FIGS. 41A-41B: Cancer cell metabolism alters sensitivity to elesclomol.
FIGS. 51A-51D: Elesclomol preferentially targets cells in the Hi-OXPHOS state. […] The relative cell growth (color coded) was analyzed 72 hours post compound addition. Plotted are the mean SD of at least three replicas and the calculated EC50s (FIGS. 51B-51C). […] Reactive groups are indicated with a colored circle.
FIGS. 57A-57C: Elesclomol preferentially targets cells in the Hi-OXPHOS state. […] Analogs named compound 1-6. […] Plotted are the mean SD of at least three replicas and the calculated EC50s (FIG. 57A and FIG. 57C).

T47D cells [2] = assay: The glucose/galactose drug screen; type: cell-based, human; settings: 10 mM Glucose or Galactose, Selleck anti cancer and natural product libraries
Method: We conducted a second set of drug screens to identify unique sensitivities conferred by the Hi-OXPHOS state using parental T47D breast cancer cells (without 19S subunit suppression). For this screen, we used the NPC and CDL libraries as they contained the greatest number of hits in the Lo19S screen. We tested over 800 compounds at multiple concentrations and measured their effects on relative cell growth/viability when cells were grown under aerobic glycolysis conditions (glucose-supplemented medium) or forced mitochondrial respiration conditions (galactose-supplemented medium).
The glucose/galactose drug screen—T47D cells growing in regular media were collected counted and after centrifugation cells were re-suspended in RPM1 media without glucose containing 10% dialyzed serum with the addition of either 10 mM glucose or 10 mM galactose, Cells were then plated at 1000 cells/well in 384-well opaque, white assay plates (Coming, N.Y.), 50 uL per well, and incubated overnight at 37°C./5% CO2. Application of the drug libraries and cell viability was executed as described above for the Lo19S drug screen.

T47D cells [3] = assay: Cell viability, T47D cells with doxycycline-inducible PSMD2 shRNA (KD) vs control; type: cell-based, human; settings: T47D, transient PSMD2 reduction
Method: FIGS. 37A-37E: Subunit suppression results in highly specific drug sensitivity alteration. Schematic representation of the drug screen setup. (FIG. 37A) 147D cells harboring a doxycycline-inducible PSMD2 shRNA were grown in the presence or absence of doxycycline for 48 hr. Cells were then collected, washed, and plated in the absence of doxycycline for 24 hr prior to exposure different compounds. Relative cell numbers were measured 3 days later. […] (FIGS. 37C-37E) The relative viability of the PSMD2 knockdown (KD) versus the control was calculated for replica experiments and the log2 of the ratio is plotted for 349 compounds from the Selleck anti-cancer L3000 drug library that were tested in 4 concentrations (FIG. 37C), the Selleck natural product library (NPC) comprising 502 compounds in 5 doses (FIG. 37D), and the NIH bioactive compound library that includes 731 compounds in 4 doses (FIG. 37E). Specific compounds are annotated.
The effect of transient PSMD2 reduction on growth of T47D cells in the presence of different proteasome inhibitors (bortezomib, MLN9708, carfilzomib, oprozornib) was tested. T47D cells harboring a doxycycline inducible control shRNA (GFP) or a doxycycline-inducible PSMD2 shRNA (TurhoRFP) were incubated with doxycycline for 3 days. Cells were then split and grown in the absence of Dox and proteasome inhibitors were then added at various concentrations. Cells were maintained in culture and then counted.
For the generation of the T47D Tet-inducible PSMD2 knockdown cell line- the TRIPZ vector with an inducible shRNA targeting PSMD2 was purchased from Dhannacon (clone V3THS_403760). It was introduced to the T47D cells according to manufactures protocol and cells were selected with puromycin 1 μg/ml for one week. The cells were exposed to doxycycline for 24 hours and cells were FACS sorted for the top 10% of most RFP expressing cells (highest expression of shRNA). The cells were further cultured in the absence of doxycycline and PSMD2 knockdown was induced as specified in the relevant Examples. The TRIPZ control GFP vector was created by removing the turboRFP from the TRIPZ control vector by digestion with Agel and ClaI and replacing it with GFP amplified with primers flanking with Agel and Clal restriction sites.
Cell Viability Assay—Relative cell growth and survival were measured in 96-well microplate format in the shRNA experiments and in 384 well format in the drug toxicity assays, by using the fluorescent detection of resazurin dye reduction as an endpoint (544 nm excitation and 590 run emission). 2,500 cells in 96 wells format or 1,000 cells in 384 well format were plated 24 hours before compound exposure (for 72 hours or indicated time). Each analysis was performed at least with three replicas.

T47D cells [4] = assay: Competition co-culture of TurboRFP PSMD2 shRNA and GFP control shRNA T47D cells, FACS/microscopy; type: cell-based, human; settings: 1:10 plating ratio, panel of proteasome inhibitors
Method: We created two cell lines—one line that expresses red fluorescent protein (turboRFP) and the doxycycline-inducible PSMD2-targeting shRNA and another line that expresses green fluorescent protein (GFP) and a doxycycline-inducible control shRNA (FIG. 6A). First, we induced shRNA expression with doxycycline for 48 hours. After recovery, we mixed shPSMD2-RFP and shControl-GFP cells at different ratios (either 1:1, 1:2, 1:5 or 1:10), adding the cells with reduced PSMD2 as the minority subpopulation. Twenty-four hours after plating, we treated these mixed populations of cells for 48 hours with increasing concentrations of bortezomib (5, 7.5 or 10 nM). We allowed the cells to recover in the absence of bortezomib and then we quantified the red and green cells by FACS analysis (FIG. 6A) and captured representative images by fluorescence microscopy (FIG. 6B),
The experiment described in Example 10 was repeated with minor differences using a panel of different proteasome inhibitors: MLN2238, MLN9708, and oprozomib T47D cells harboring a doxycycline inducible control shRNA (GFP) or a doxycycline-inducible PSMD2 shRNA (TurboRFP) were incubated with doxycycline for 3 days. Cells were collected, counted, and plated at a 1:10 ratio of TurboRFP-expressing PSMD2 shRNA cells/GFP expression control shRNA cells in the absence of Dox. Proteasome inhibitors were added at the specified concentrations and cells were maintained in culture. Cells were allowed to recover in the absence of the proteasome inhibitor and then analyzed by FACS (FIG. 8B, top) or visualized by microscopy (FIG. 8B, bottom). In the absence of proteasome inhibitors, the initial plating ratio of these cells (1:10) was maintained over the duration of the experiment (FIG. 8B). […]
Visualization and FACS analysis of GFP/RFP levels—cells were trypsinized in 100 μL Accumax® solution and further diluted into 100 μl PBSx1. The number of cells with red or areen fluorescent proteins was measured by MACSQuant® VYB according to manufactures protocol. […]

[5] = test system: T47D cells with doxycycline inducible PSMD2 KD (Lo19S) versus control cells; assay: Lo19S T47D drug screen (PSMD2 KD versus control cells, CellTiter-Glo); type: cell-based, human; settings: T47D, Lo19S state by dox-inducible PSMD2 shRNA; compound library screen; 72 h; CellTiter-Glo
Method: The effect of each drug on viability of cells was calculated by averaging the duplicate experiments. The data is plotted in FIG. 16 as the log2 of the ratio of viability of PSMD2 KD versus control cells (log2 (shPSMD2/Control)). […] The Selleck natural product library (NPC) comprising 502 compounds in 5 doses and the. NIH bioactive compound library that includes 731 compounds in 4 doses were also screened using the same system.
A deeper understanding of the proteasome inhibitor resistant state could yield insights into the molecular mechanisms activated by cells to cope with proteotoxic stress and elucidate new therapeutic strategies for cancer. With these goals in mind, we screened mechanistically diverse small molecule libraries to identify compound sensitivities altered by the Lo19S and Hi-OXPHOS states. An initial screen was conducted in the isogenic T47D model with transient induction of the Lo19S state as described above, We evaluated >4300 mechanistically well-defined compounds within 4 libraries. The compounds included approved cancer drugs (Selleck anti-cancer library: CDL), common natural products (Natural product library: NPC) and an ^-NIH bioactives library (NIH). Each of these compounds was tested at ≥4 concentrations. (Table S5, data not shown), An additional 2866 compounds from the Boston University's Chemical Methodology and Library Development (CMLD-BU) small molecule collection was screened at a single dose (BULL, see Table S5).
Generation of the Lo19S T47D cell line—For the generation of the T47D Tet-inducible PSMD2 knockdown cell line—the TRIPZ vector with an inducible shRNA targeting PSMD2 was purchased from Dharmacon (clone V3THS_403760). It was introduced to the T47D cells according to manufactures protocol and cells were selected with puromycin […] for one week. The cells were exposed to doxycycline for 24 hours and cells were FACS sorted for the top 10% of most RFP expressing cells (highest expression of shRNA). The cells were further cultured in the absence of doxycycline and PSMD2 knockdown was induced as specified in the text.
After 48 hours the cells were collected counted and plated (in the absence of dox) at 1000 cells/well in 384-well opaque, white assay plates (Coming, NY), 50 uL per well, and incubated overnight at 37° C./5% CO2. Compound stocks from the Cancer drug library containing 349 bioactive compounds that were arrayed in dose 10 nM, 100 nM, 1 uM, 10 uM (Selleck anti-cancer compound library L3000), the natural products library containing 502 compounds that were utilized in 5 doses (dilution of 1:1000 of 2ug/ml, 0.2 ug/ml, 0.002/ug/ml, 0.0002 ug/ml), the NIH bioactive library including 731 drugs in dose of 10 nM, 100 nM, 1 uM, 10 uM and the Boston University's CMLD (Chemical Methodology and Library Development) compound deck containing 2866 compounds in one dose (10 uM), including novel chemotypes that uniquely probe three-dimensional space by employing stereochemical and positional variation within the molecular framework as diversity elements in library design. 50 nl of compounds were pin-transferred (V&P Scientific, CA, pin tool mounted onto Tecan Freedom Evo 150 MCA96 head, Tecan, Calif.) into duplicate assay plates and incubated for 72 h. The DMSO content was 0.1% within each well, Per plate, there are 32 wells of DMSO vehicle control and 32 wells of positive control compounds. After three days of incubation, 10 uL of CellTiter-Glo (Promega, Wis.) was added to each well, incubated for 10 minutes and the luminescence output was read on the M1000 Infinite Pro plate reader (Tecan, Calif.).

FDX1 = biological target: T1, FDX1 (Homo sapiens, UniProt P10109); assay: In vitro Fe-S cluster assembly with reduced FDX1 (absorbance at 456 nm); type: biochemical; settings: x5 concentration relative to enzyme
T1 construct: made in house
T1 sequence (P10109 62-184): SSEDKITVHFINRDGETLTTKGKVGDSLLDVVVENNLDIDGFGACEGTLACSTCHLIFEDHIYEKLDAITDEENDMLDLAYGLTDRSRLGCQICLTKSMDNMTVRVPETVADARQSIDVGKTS
Excerpt: FIGS. 47A-47C: Inhibition of Fe—S formation by elesclomol and variants (in-vitro). […] Note: “x(number) concentration” means that the indicated compound was present at 5 times the concentration of the enzyme.
(FIG. 53A) provides a schematic describing mitochondrial Fe—S cluster biosynthesis. The mitochondrial ISC (iron-sulfur cluster) core complex contains the scaffold protein ISCU and cysteine desulfurase (ACP-ISD11-NFS1)2. The latter catalyzes the conversion of cysteine to alanine and generates S° for iron sulfur cluster assembly. S° is reduced by FDX1. A [2Fe-2S] cluster is subsequently formed on ISCU. […] In vitro Fe—S cluster assembly was carried out with reduced. FDX1 as the reducing agent in the presence or absence of either 5× (green) or 10× (yellow) elesclomol (both relative to FDX1). Fe—S cluster formation was monitored by following the increase of absorbance at 456 nm. […] The red triangle denotes an NMR peak that became severely broadened. […] The [2Fe-2S] cluster in FDX1 is indicated by spheres.
The in vitro Fe—S cluster assembly was carried out with reduced FDX1 as the reducing agent and detected by following the increase of absorbance at 456 tun following the addition of either of 5× (green) or 10× (yellow, both relative to FDX1) compound-1. […] Fe—S formation was monitored by following the increase of absorbance at 456 nm. […] Cysteine desulfurase activity assay carried out with the indicated concentrations of elesclomol.

Row | SMILES | relative viability change of cells grown in glucose versus galactose (T47D cells [2]) | shift of surviving population toward PSMD2 shRNA cells (T47D cells [4]) | also measured
1 | O=C(/C=C/c1cccnc1)NCCCCC1CCN(C(=O)c2ccccc2)CC1 [APO866] | predominantly more sensitive; also recorded: strongest hits in this screen | – | targeting of glycolytic cancer cells [1]: preferentially targets glycolytic cancer cells
2 | COC[C@H](NC(=O)c1cnc(C)s1)C(=O)N[C@@H](COC)C(=O)N[C@@H](Cc1ccccc1)C(=O)[C@@]1(C)CO1 [oprozomib] | – | substantially shifted the populations of surviving cells | resistance of cells harboring PSMD2 shRNA vs parental line (EC50) (T47D cells [3]): EC50 values increased considerably
3 | CC(C)C[C@H](NC(=O)CNC(=O)c1cc(Cl)ccc1Cl)B(O)O [MLN2238] | strongest hits in this screen | substantially shifted the populations of surviving cells | viability of PSMD2 KD versus control cells (log2 (shPSMD2/Control)) [5]: selectively reduce viability of control cells versus PSMD2 KD cells
4 | CN(NC(=O)CC(=O)NN(C)C(=S)c1ccccc1)C(=S)c1ccccc1 [SAT-4783] | – | – | in vitro formation of Fe-S clusters mediated by FDX1 (FDX1): inhibition
